# Target: T1, xyloglucan oligosaccharide-degrading enzyme (Geotrichum sp., UniProt Q8J0D2)
# T1 construct: made in house; host or cells: Geotrichum sp. strain M128 (natural producer; enzyme purified, not recombinant)
# Test: Inhibition of the enzyme activity by metal ions
# Assay type: biochemical, Geotrichum sp. strain M128
# Settings: concentration of 1 mM or more
smiles,measurement,value
[Hg+2] [mercury ion],inhibition of the activity of the enzyme,strongly inhibited

# Reference: patent US20040038367A1, “Novel xyloglucan oligosaccharide-degrading enzyme, polynucleotide encoding the enzyme, and method of preparing the enzyme” (NATIONAL INSTITUTE OF ADVANCED INDUSTRIAL SCIENCE AND …, priority 2002, published 2004)
